The values that follow come from patent publication US10168342B2, “Lipid probes and uses thereof” (THE SCRIPPS RESEARCH INSTITUTE, priority 2015, dated 2019).

Each structure is given as a SMILES string.

Test in all cases: isoTOP-ABPP mapping of AEA-DA-modified peptides in Neuro2a cells
Format in all cases: cell-based

The target in experiment [1] is T1, AEA-DA-modified peptides in Neuro2a cells (Mus musculus, UniProt P42208).
T1 construct: endogenous in cells; host or cells: Neuro2a
As to conditions: AEA-DA-modified peptide SEPT2 P42208 78-92, SEQ ID NO 98; probe 100 μM, 12 replicates.

Experiment [2] deals with T2, AEA-DA-modified peptides in Neuro2a cells (Mus musculus, UniProt P56812).
T2 construct: endogenous in cells; host or cells: Neuro2a
T2 sequence (P56812 whole entry): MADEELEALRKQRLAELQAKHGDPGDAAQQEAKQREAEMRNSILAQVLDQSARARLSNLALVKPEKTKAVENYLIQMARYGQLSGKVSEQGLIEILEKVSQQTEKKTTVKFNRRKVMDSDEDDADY
Particulars: AEA-DA-modified peptide PDCD5 P56812 69-80, SEQ ID NO 80; probe 100 μM, 12 replicates.

In experiment [3] the target is T3, AEA-DA-modified peptides in Neuro2a cells (Mus musculus, UniProt P84084).
T3 construct: endogenous in cells; host or cells: Neuro2a
T3 sequence (P84084 whole entry): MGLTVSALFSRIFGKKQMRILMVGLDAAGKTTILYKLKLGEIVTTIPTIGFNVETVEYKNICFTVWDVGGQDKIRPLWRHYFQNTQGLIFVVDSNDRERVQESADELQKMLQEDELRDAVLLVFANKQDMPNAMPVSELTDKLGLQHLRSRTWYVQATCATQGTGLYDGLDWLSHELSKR
As to conditions: AEA-DA-modified peptide ARF5 P84084 39-60, SEQ ID NO 14; probe 100 μM, 12 replicates.

Experiment [4] has as its target T4, AEA-DA-modified peptides in Neuro2a cells (Mus musculus, UniProt Q8R0X7).
T4 construct: endogenous in cells; host or cells: Neuro2a
Particulars: probe 100 μM, 12 replicates.

In experiment [5] the target is T5, AEA-DA-modified peptides in Neuro2a cells (Mus musculus, UniProt Q8R127).
T5 construct: endogenous in cells; host or cells: Neuro2a
T5 sequence (Q8R127 whole entry): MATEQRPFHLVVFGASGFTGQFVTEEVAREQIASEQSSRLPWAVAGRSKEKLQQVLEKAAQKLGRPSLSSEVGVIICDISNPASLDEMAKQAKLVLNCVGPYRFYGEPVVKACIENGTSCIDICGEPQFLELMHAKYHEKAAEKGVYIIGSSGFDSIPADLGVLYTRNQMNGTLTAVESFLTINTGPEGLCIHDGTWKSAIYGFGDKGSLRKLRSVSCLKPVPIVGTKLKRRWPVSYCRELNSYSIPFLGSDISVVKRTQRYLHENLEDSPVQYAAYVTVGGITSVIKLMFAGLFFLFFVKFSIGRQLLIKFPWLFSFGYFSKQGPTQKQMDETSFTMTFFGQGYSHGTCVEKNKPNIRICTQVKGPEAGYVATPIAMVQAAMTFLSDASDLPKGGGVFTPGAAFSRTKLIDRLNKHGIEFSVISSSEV
As to conditions: AEA-DA-modified peptide SCCPDH Q8R127 145-168, SEQ ID NO 96; probe 100 μM, 12 replicates.

The target of experiment [6] is T6, AEA-DA-modified peptides in Neuro2a cells (Mus musculus, UniProt Q8VDN2).
T6 construct: endogenous in cells; host or cells: Neuro2a
Particulars: AEA-DA-modified peptide ATP1A1 Q8VDN2 360-386, SEQ ID NO 17; probe 100 μM, 12 replicates.

For experiment [7], the target named is T7, AEA-DA-modified peptides in Neuro2a cells (Mus musculus, UniProt Q91YE6).
T7 construct: endogenous in cells; host or cells: Neuro2a
T7 sequence (Q91YE6 whole entry): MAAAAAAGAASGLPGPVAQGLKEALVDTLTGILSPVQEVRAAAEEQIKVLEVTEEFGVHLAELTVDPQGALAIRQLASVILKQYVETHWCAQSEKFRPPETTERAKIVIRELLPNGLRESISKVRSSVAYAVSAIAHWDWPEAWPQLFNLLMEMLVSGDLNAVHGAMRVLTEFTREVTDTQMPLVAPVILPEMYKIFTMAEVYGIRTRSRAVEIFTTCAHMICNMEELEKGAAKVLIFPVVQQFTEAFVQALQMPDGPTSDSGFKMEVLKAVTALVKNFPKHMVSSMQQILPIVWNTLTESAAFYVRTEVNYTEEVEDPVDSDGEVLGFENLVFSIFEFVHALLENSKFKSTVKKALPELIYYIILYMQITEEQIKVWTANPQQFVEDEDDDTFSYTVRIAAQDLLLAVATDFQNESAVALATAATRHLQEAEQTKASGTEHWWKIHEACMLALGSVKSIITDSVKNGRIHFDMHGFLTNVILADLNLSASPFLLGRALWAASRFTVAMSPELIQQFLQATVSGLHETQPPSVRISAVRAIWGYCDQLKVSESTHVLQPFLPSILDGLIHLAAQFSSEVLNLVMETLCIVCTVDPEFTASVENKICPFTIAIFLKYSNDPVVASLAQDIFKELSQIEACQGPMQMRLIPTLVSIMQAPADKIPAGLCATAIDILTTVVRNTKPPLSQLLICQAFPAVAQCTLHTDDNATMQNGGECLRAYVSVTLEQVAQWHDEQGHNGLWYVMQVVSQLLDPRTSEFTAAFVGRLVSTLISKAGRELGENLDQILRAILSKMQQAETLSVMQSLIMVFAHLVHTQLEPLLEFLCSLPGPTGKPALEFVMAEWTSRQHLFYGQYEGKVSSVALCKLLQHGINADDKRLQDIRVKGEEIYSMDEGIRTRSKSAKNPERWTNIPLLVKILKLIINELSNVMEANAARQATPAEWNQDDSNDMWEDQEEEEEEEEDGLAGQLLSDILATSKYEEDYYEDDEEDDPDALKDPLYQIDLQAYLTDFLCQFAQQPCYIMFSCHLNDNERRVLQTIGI
Particulars: AEA-DA-modified peptide IPO9 Q91YE6 777-788, SEQ ID NO 54; probe 100 μM, 12 replicates.

The target of experiment [8] is T8, AEA-DA-modified peptides in Neuro2a cells (Mus musculus, UniProt Q99JB2).
T8 construct: endogenous in cells; host or cells: Neuro2a
T8 sequence (Q99JB2 29-353): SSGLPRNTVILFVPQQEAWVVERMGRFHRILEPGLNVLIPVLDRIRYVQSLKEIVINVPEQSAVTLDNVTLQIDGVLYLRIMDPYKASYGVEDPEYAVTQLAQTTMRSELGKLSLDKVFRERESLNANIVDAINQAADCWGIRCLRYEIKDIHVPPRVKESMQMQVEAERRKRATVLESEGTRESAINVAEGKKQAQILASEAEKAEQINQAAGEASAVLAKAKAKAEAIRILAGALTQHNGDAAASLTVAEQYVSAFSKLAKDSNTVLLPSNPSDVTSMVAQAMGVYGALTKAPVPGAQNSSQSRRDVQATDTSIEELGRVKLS
As to conditions: AEA-DA-modified peptide STOML2 Q99JB2 292-322, SEQ ID NO 107; probe 100 μM, 12 replicates.

For experiment [9], the target named is T9, AEA-DA-modified peptides in Neuro2a cells (Mus musculus, UniProt Q99K48).
T9 construct: endogenous in cells; host or cells: Neuro2a
T9 sequence (Q99K48 whole entry): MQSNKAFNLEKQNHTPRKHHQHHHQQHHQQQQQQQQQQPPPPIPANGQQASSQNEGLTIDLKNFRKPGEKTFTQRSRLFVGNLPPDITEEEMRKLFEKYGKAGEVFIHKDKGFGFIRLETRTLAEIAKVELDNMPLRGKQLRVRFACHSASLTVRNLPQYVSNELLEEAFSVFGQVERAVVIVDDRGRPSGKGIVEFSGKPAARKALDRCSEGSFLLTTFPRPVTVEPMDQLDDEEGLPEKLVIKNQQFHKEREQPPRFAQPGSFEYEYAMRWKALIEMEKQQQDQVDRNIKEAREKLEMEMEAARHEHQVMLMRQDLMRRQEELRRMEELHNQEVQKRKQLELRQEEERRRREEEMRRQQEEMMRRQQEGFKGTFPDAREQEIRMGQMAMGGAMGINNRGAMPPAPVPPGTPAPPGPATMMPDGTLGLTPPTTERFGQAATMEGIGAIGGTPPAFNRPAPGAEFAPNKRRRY
As to conditions: AEA-DA-modified peptide NONO Q99K48 122-138, SEQ ID NO 69; probe 100 μM, 12 replicates.

For experiment [10], the target named is T10, AEA-DA-modified peptides in Neuro2a cells (Mus musculus, UniProt Q99P72).
T10 construct: endogenous in cells; host or cells: Neuro2a
T10 sequence (Q99P72 whole entry): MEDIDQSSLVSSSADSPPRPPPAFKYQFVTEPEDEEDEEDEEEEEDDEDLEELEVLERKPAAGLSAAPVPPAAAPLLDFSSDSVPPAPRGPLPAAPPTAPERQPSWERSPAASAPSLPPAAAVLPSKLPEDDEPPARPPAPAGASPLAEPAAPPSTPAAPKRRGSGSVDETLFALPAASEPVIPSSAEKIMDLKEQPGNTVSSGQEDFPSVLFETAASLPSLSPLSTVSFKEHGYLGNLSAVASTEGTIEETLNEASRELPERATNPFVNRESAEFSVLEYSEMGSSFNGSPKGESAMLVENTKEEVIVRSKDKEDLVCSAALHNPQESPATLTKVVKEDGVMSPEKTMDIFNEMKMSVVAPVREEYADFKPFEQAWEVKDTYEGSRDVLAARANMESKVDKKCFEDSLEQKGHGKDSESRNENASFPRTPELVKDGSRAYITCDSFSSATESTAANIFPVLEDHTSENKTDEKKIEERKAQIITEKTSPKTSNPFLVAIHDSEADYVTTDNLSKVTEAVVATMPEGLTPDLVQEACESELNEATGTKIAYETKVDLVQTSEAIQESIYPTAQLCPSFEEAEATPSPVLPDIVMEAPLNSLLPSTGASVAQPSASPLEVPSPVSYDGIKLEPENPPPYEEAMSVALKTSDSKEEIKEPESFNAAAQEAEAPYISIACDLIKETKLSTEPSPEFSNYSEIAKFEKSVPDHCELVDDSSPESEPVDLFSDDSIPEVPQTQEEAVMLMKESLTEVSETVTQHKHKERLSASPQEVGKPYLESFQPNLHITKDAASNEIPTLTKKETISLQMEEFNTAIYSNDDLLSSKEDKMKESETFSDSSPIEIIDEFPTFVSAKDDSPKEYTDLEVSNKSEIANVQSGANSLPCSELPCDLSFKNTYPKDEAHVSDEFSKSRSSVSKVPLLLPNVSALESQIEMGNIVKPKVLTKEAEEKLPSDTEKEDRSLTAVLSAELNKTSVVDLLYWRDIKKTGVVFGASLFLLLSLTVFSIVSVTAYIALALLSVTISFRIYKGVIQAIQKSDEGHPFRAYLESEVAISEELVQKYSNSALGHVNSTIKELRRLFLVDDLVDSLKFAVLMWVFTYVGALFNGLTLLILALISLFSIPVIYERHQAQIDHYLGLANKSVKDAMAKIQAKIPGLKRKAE
As to conditions: AEA-DA-modified peptide RTN4 Q99P72 1045-106, SEQ ID NO 94; probe 100 μM, 12 replicates.

Experiment [11] deals with T11, AEA-DA-modified peptides in Neuro2a cells (Mus musculus, UniProt Q9CQX2).
T11 construct: endogenous in cells; host or cells: Neuro2a
T11 sequence (Q9CQX2 12-146): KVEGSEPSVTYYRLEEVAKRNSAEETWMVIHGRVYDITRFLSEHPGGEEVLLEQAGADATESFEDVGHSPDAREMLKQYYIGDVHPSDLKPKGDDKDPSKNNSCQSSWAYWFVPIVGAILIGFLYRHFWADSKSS
Particulars: AEA-DA-modified peptide CYB5B Q9CQX2 138-145, SEQ ID NO 28; probe 100 μM, 12 replicates.

Experiment [12] deals with T12, AEA-DA-modified peptides in Neuro2a cells (Mus musculus, UniProt Q9D8V0).
T12 construct: endogenous in cells; host or cells: Neuro2a
T12 sequence (Q9D8V0 whole entry): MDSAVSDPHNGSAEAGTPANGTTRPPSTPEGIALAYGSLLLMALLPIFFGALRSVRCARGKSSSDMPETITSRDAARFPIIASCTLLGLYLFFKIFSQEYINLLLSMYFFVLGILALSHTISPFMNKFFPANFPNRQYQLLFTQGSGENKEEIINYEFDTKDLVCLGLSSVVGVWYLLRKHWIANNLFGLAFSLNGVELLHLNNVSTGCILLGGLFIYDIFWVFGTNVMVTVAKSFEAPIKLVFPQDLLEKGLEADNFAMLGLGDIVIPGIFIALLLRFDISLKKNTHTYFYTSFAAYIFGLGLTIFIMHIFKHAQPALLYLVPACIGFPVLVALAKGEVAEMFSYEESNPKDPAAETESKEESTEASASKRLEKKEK
As to conditions: AEA-DA-modified peptide HM13 Q9D8V0 62-74, SEQ ID NO 48; probe 100 μM, 12 replicates.

T4 sequence (Q8R0X7 whole entry): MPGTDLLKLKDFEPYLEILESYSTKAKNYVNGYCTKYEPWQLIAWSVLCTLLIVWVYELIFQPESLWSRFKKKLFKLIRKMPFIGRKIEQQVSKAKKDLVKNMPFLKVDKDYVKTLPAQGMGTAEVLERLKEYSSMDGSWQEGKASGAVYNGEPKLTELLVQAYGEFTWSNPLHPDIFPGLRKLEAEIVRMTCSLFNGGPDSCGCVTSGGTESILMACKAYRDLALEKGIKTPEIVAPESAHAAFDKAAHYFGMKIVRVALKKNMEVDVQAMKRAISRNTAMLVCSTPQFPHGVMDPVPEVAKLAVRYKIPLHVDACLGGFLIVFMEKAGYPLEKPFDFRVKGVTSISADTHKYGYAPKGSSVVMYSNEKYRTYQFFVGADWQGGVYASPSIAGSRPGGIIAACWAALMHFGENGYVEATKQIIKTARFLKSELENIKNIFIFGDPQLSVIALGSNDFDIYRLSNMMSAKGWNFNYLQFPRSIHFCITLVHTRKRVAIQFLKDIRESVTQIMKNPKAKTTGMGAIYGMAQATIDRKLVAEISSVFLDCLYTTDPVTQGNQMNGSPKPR

As for `C#CCCCC1(CC/C=C\C/C=C\C/C=C\CCCC(=O)NCCO)N=N1` [AEA-DA, (5Z,8Z,11Z)-N-(2-hydroxyethyl)-14-(3-(pent-4-yn-1-yl)-3H-diazirin-3-yl)tetradeca-5,8,11-trienamide], the Times observed turned out to be 2 in [1]; 5 in experiment [2]; 9 in [3]; 4 in [4] (AEA-DA-modified peptide SGPL1 Q8R0X7 9-26, SEQ ID NO 100); 12 in experiment [4] (AEA-DA-modified peptide SGPL1 Q8R0X7 519-536, SEQ ID NO 99); 11 in experiment [5]. For the same compound, the Times observed in [6] came out at 2; in [7], 3; in [8], 2; in experiment [9], 3; in experiment [10], 7; in [11], 2. The Times observed in [12] is 12.
